According to ChEMBL document CHEMBL5625252, “Synthesis of peptidomimetics as antibiotic adjuvants for combination with aztreonam to combat MDR Pseudomonas aeruginosa” (Eur J Med Chem, 2023):
In brackets after ≈: the same amount, converted by molar mass. Activity calls are given as the source filed them. The rule behind the calls is not given here.

Legend:
Pseudomonas aeruginosa [1] = test: Antibacterial activity against Pseudomonas aeruginosa 23-Y122 assessed as inhibition of bacterial growth incubated for 18 hrs by agar dilution method; type: functional
Pseudomonas aeruginosa [2] = test: Antibacterial activity against Pseudomonas aeruginosa PAO1 assessed as inhibition of bacterial growth incubated for 18 hrs by agar dilution method; type: functional
Pseudomonas aeruginosa [3] = test: Antibacterial activity against Pseudomonas aeruginosa 12-1 assessed as inhibition of bacterial growth incubated for 18 hrs by agar dilution method; type: functional
Pseudomonas aeruginosa [4] = test: Antibacterial activity against Pseudomonas aeruginosa 19-55 assessed as inhibition of bacterial growth incubated for 18 hrs by agar dilution method; type: functional
Pseudomonas aeruginosa [5] = test: Antibacterial activity against Pseudomonas aeruginosa 21-8 assessed as inhibition of bacterial growth incubated for 18 hrs by agar dilution method; type: functional
Pseudomonas aeruginosa [6] = test: Antibacterial activity against Pseudomonas aeruginosa 16-2 assessed as inhibition of bacterial growth incubated for 18 hrs by agar dilution method; type: functional
Pseudomonas aeruginosa [7] = test: Antibacterial activity against Pseudomonas aeruginosa 21-2 assessed as inhibition of bacterial growth incubated for 18 hrs by agar dilution method; type: functional
Pseudomonas aeruginosa [8] = test: Antibacterial activity against Pseudomonas aeruginosa 19-46 assessed as inhibition of bacterial growth incubated for 18 hrs by agar dilution method; type: functional
Pseudomonas aeruginosa [9] = test: Antibacterial activity against Pseudomonas aeruginosa 23-Y539 assessed as inhibition of bacterial growth incubated for 18 hrs by agar dilution method; type: functional
Pseudomonas aeruginosa [10] = test: Antibacterial activity against Pseudomonas aeruginosa 13-35 assessed as inhibition of bacterial growth incubated for 18 hrs by agar dilution method; type: functional
Pseudomonas aeruginosa [11] = test: Antibacterial activity against Pseudomonas aeruginosa 23-Y372 assessed as inhibition of bacterial growth incubated for 18 hrs by agar dilution method; type: functional
Pseudomonas aeruginosa [12] = test: Antibacterial activity against Pseudomonas aeruginosa 23-Y417 assessed as inhibition of bacterial growth incubated for 18 hrs by agar dilution method; type: functional; details: read-out: MIC
Pseudomonas aeruginosa [13] = test: Antibacterial activity against Pseudomonas aeruginosa 13-17 assessed as inhibition of bacterial growth incubated for 18 hrs by agar dilution method; type: functional
Pseudomonas aeruginosa [14] = test: Antibacterial activity against Pseudomonas aeruginosa 23-Y364 assessed as inhibition of bacterial growth incubated for 18 hrs by agar dilution method; type: functional
Pseudomonas aeruginosa [15] = test: Antibacterial activity against Pseudomonas aeruginosa 21-7 assessed as inhibition of bacterial growth incubated for 18 hrs by agar dilution method; type: functional
Pseudomonas aeruginosa [16] = test: Antibacterial activity against Pseudomonas aeruginosa 16-11 assessed as inhibition of bacterial growth incubated for 18 hrs by agar dilution method; type: functional
Pseudomonas aeruginosa [17] = test: Antibacterial activity against Pseudomonas aeruginosa 13-3 assessed as inhibition of bacterial growth incubated for 18 hrs by agar dilution method; type: functional
Pseudomonas aeruginosa [18] = test: Antibacterial activity against Pseudomonas aeruginosa 23-Y511 assessed as inhibition of bacterial growth incubated for 18 hrs by agar dilution method; type: functional
Klebsiella pneumoniae [19] = test: Antibacterial activity against NDM-1 (+) Klebsiella pneumoniae 09-20 assessed as inhibition of bacterial growth incubated for 18 hrs by agar dilution method; type: functional
Pseudomonas aeruginosa [20] = test: Antibacterial activity against Pseudomonas aeruginosa PAO1 in CAMH broth medium supplemented with 0.41 to 0.51 mM Mg2+ by checkerboard assay; type: functional
Pseudomonas aeruginosa [21] = test: Antibacterial activity against Pseudomonas aeruginosa 13-35 in CAMH broth medium supplemented with 20.99 to 21.09 mM Mg2+ by checkerboard assay; type: functional
Escherichia coli [22] = test: Antibacterial activity against ESBLs (+) Escherichia coli 16-1 assessed as inhibition of bacterial growth incubated for 18 hrs by agar dilution method; type: functional
Pseudomonas aeruginosa [23] = test: Antibacterial activity against Pseudomonas aeruginosa 16-11 in CAMH broth medium supplemented with 0.41 to 0.51 mM Mg2+ by checkerboard assay; type: functional
Pseudomonas aeruginosa [24] = test: Antibacterial activity against Pseudomonas aeruginosa PAO1 at 2 ug/ml measured upto 24 hrs by time-kill assay; type: functional, organism-based; details: dose 2.0 µg/ml
Pseudomonas aeruginosa [25] = test: Antibacterial activity against Pseudomonas aeruginosa 16-2 at 16 ug/ml measured upto 24 hrs by time-kill assay; type: functional, organism-based; details: dose 16.0 µg/ml
Pseudomonas aeruginosa [26] = test: Antibacterial activity against Pseudomonas aeruginosa 16-11 in CAMH broth medium supplemented with 20.99 to 21.09 mM Mg2+ by checkerboard assay; type: functional
Escherichia coli [27] = test: Antibacterial activity against ESBLs (-) Escherichia coli ATCC 25922 assessed as inhibition of bacterial growth incubated for 18 hrs by agar dilution method; type: functional
Pseudomonas aeruginosa [28] = test: Antibacterial activity against Pseudomonas aeruginosa 13-35 in CAMH broth medium supplemented with 0.41 to 0.51 mM Mg2+ by checkerboard assay; type: functional
Pseudomonas aeruginosa [29] = test: Antibacterial activity against Pseudomonas aeruginosa 12-1 in CAMH broth medium supplemented with 20.99 to 21.09 mM Mg2+ by checkerboard assay; type: functional
Klebsiella pneumoniae [30] = test: Antibacterial activity against NDM-1 (+) Klebsiella pneumoniae 2146 assessed as inhibition of bacterial growth incubated for 18 hrs by agar dilution method; type: functional
Pseudomonas aeruginosa [31] = test: Antibacterial activity against Pseudomonas aeruginosa 12-1 in CAMH broth medium supplemented with 0.41 to 0.51 mM Mg2+ by checkerboard assay; type: functional
Pseudomonas aeruginosa [32] = test: Antibacterial activity against Pseudomonas aeruginosa PAO1 infected in Galleria mellonella assessed as increase in larvae survival at 25 mg/kg measured every 12 hrs; type: functional, organism-based
Escherichia coli [33] = test: Antibacterial activity against NDM-1 (+) Escherichia coli CDC 1001728 assessed as inhibition of bacterial growth incubated for 18 hrs by agar dilution method; type: functional
Pseudomonas aeruginosa [34] = test: Antibacterial activity against Pseudomonas aeruginosa PAO1 in CAMH broth medium supplemented with 20.99 to 21.09 mM Mg2+ by checkerboard assay; type: functional
Escherichia coli [35] = test: Antibacterial activity against mcr-1 (+) Escherichia coli 08-85 assessed as inhibition of bacterial growth incubated for 18 hrs by agar dilution method; type: functional
Pseudomonas aeruginosa [36] = test: Antibacterial activity against BL (+) Pseudomonas aeruginosa ATCC 27853 assessed as inhibition of bacterial growth incubated for 18 hrs by agar dilution method; type: functional
Klebsiella pneumoniae [37] = test: Antibacterial activity against ESBLs (+) Klebsiella pneumoniae ATCC 700603 assessed as inhibition of bacterial growth incubated for 18 hrs by agar dilution method; type: functional
Klebsiella pneumoniae [38] = test: Antibacterial activity against ESBLs (+) Klebsiella pneumoniae 16-14 assessed as inhibition of bacterial growth incubated for 18 hrs by agar dilution method; type: functional
Pseudomonas aeruginosa [39] = test: Antibacterial activity against Pseudomonas aeruginosa 16-2 infected in Galleria mellonella assessed as larvae survival rate at 50 mg/kg after 96 hrs of innoculation; type: functional

SMILES: CC(C)(O/N=C(\C(=O)N[C@@H]1C(=O)N2C(C(=O)[O-])=C(C[n+]3ccccc3)CS[C@H]12)c1csc(N)n1)C(=O)O [CEFTAZIDIME]
- MIC (Pseudomonas aeruginosa [1]): 256 µg/mL (≈ 468 µM)
- MIC (Pseudomonas aeruginosa [2]): 2 µg/mL (≈ 3.66 µM)
- MIC (Pseudomonas aeruginosa [3]): 64 µg/mL (≈ 117 µM)
- MIC (Pseudomonas aeruginosa [4]): 128 µg/mL (≈ 234 µM)
- MIC (Pseudomonas aeruginosa [5]): 1 µg/mL (≈ 1.83 µM)
- MIC (Pseudomonas aeruginosa [6]): 128 µg/mL (≈ 234 µM)
- MIC (Pseudomonas aeruginosa [7]): 64 µg/mL (≈ 117 µM)
- MIC (Pseudomonas aeruginosa [8]): 128 µg/mL (≈ 234 µM)
- MIC (Pseudomonas aeruginosa [9]): 32 µg/mL (≈ 58.5 µM)
- MIC (Pseudomonas aeruginosa [10]): 16 µg/mL (≈ 29.3 µM)
- MIC (Pseudomonas aeruginosa [11]): > 256 µg/mL
- MIC (Pseudomonas aeruginosa [12]): 4 µg/mL (≈ 7.32 µM)
- MIC (Pseudomonas aeruginosa [13]): 64 µg/mL (≈ 117 µM)
- MIC (Pseudomonas aeruginosa [14]): 64 µg/mL (≈ 117 µM)
- MIC (Pseudomonas aeruginosa [15]): > 256 µg/mL
- MIC (Pseudomonas aeruginosa [16]): > 256 µg/mL
- MIC (Pseudomonas aeruginosa [17]): 64 µg/mL (≈ 117 µM)
- MIC (Pseudomonas aeruginosa [18]): 1 µg/mL (≈ 1.83 µM)

SMILES: C[C@@H](O)[C@H]1C(=O)N2C(C(=O)O)=C(S[C@@H]3CN[C@H](C(=O)N(C)C)C3)[C@H](C)[C@H]12 [MEROPENEM]
- MIC (Pseudomonas aeruginosa [1]): 128 µg/mL (≈ 334 µM)
- MIC (Pseudomonas aeruginosa [2]): 2 µg/mL (≈ 5.22 µM)
- MIC (Pseudomonas aeruginosa [3]): 16 µg/mL (≈ 41.7 µM)
- MIC (Pseudomonas aeruginosa [4]): 128 µg/mL (≈ 334 µM)
- MIC (Pseudomonas aeruginosa [5]): 0.5 µg/mL (≈ 1.3 µM)
- MIC (Pseudomonas aeruginosa [6]): 16 µg/mL (≈ 41.7 µM)
- MIC (Pseudomonas aeruginosa [7]): 16 µg/mL (≈ 41.7 µM)
- MIC (Pseudomonas aeruginosa [8]): 128 µg/mL (≈ 334 µM)
- MIC (Pseudomonas aeruginosa [9]): 1 µg/mL (≈ 2.61 µM)
- MIC (Pseudomonas aeruginosa [10]): 32 µg/mL (≈ 83.4 µM)
- MIC (Pseudomonas aeruginosa [11]): > 256 µg/mL
- MIC (Pseudomonas aeruginosa [12]): 16 µg/mL (≈ 41.7 µM)
- MIC (Pseudomonas aeruginosa [13]): 32 µg/mL (≈ 83.4 µM)
- MIC (Pseudomonas aeruginosa [14]): 2 µg/mL (≈ 5.22 µM)
- MIC (Pseudomonas aeruginosa [15]): 16 µg/mL (≈ 41.7 µM)
- MIC (Pseudomonas aeruginosa [16]): 1 µg/mL (≈ 2.61 µM)
- MIC (Pseudomonas aeruginosa [17]): 32 µg/mL (≈ 83.4 µM)
- MIC (Pseudomonas aeruginosa [18]): 0.125 µg/mL (≈ 0.326 µM)

SMILES: C[C@H]1[C@H](NC(=O)/C(=N\OC(C)(C)C(=O)O)c2csc(N)n2)C(=O)N1S(=O)(=O)O [AZTREONAM]
- MIC (Pseudomonas aeruginosa [1]): 32 µg/mL (≈ 73.5 µM)
- MIC (Pseudomonas aeruginosa [2]): 8 µg/mL (≈ 18.4 µM)
- MIC (Klebsiella pneumoniae [19]): 0.25 µg/mL (≈ 0.574 µM)
- MIC (Pseudomonas aeruginosa [3]): 64 µg/mL (≈ 147 µM)
- MIC (Pseudomonas aeruginosa [20]): 8 µg/mL
- MIC (Pseudomonas aeruginosa [4]): 128 µg/mL (≈ 294 µM)
- MIC (Pseudomonas aeruginosa [21]): 32 µg/mL
- MIC (Escherichia coli [22]): ≤ 0.03 µg/mL
- MIC (Pseudomonas aeruginosa [23]): 8 µg/mL
- Activity (Pseudomonas aeruginosa [24]): inactive
- MIC (Pseudomonas aeruginosa [7]): 64 µg/mL (≈ 147 µM)
- MIC (Pseudomonas aeruginosa [8]): 128 µg/mL (≈ 294 µM)
- MIC (Pseudomonas aeruginosa [9]): 64 µg/mL (≈ 147 µM)
- Activity (Pseudomonas aeruginosa [25]): inactive
- MIC (Pseudomonas aeruginosa [26]): 8 µg/mL
- MIC (Pseudomonas aeruginosa [10]): 32 µg/mL (≈ 73.5 µM)
- MIC (Escherichia coli [27]): 0.06 µg/mL (≈ 0.138 µM)
- MIC (Pseudomonas aeruginosa [11]): 32 µg/mL (≈ 73.5 µM)
- MIC (Pseudomonas aeruginosa [28]): 32 µg/mL
- MIC (Pseudomonas aeruginosa [29]): 64 µg/mL
- MIC (Klebsiella pneumoniae [30]): > 128 µg/mL
- MIC (Pseudomonas aeruginosa [31]): 64 µg/mL
- MIC (Pseudomonas aeruginosa [13]): 64 µg/mL (≈ 147 µM)
- MIC (Pseudomonas aeruginosa [14]): > 256 µg/mL
- MIC (Pseudomonas aeruginosa [15]): > 256 µg/mL
- Activity (Pseudomonas aeruginosa [32]): inactive
- MIC (Escherichia coli [33]): 4 µg/mL (≈ 9.19 µM)
- MIC (Pseudomonas aeruginosa [16]): 8 µg/mL (≈ 18.4 µM)
- MIC (Pseudomonas aeruginosa [17]): 64 µg/mL (≈ 147 µM)
- MIC (Pseudomonas aeruginosa [34]): 8 µg/mL
- MIC (Pseudomonas aeruginosa [18]): 32 µg/mL (≈ 73.5 µM)
- MIC (Escherichia coli [35]): 4 µg/mL (≈ 9.19 µM)
- MIC (Pseudomonas aeruginosa [36]): 4 µg/mL (≈ 9.19 µM)
- MIC (Klebsiella pneumoniae [37]): 32 µg/mL (≈ 73.5 µM)
- MIC (Klebsiella pneumoniae [38]): 4 µg/mL (≈ 9.19 µM)
- Activity (Pseudomonas aeruginosa [39]): 30%
